Results from ChEMBL document CHEMBL5500361, “Probing benzenesulfonamide-thiazolidinone hybrids as multitarget directed ligands for efficient control of type 2 diabetes mellitus through targeting the enzymes: α-glucosidase and carbonic anhydrase II” (Eur J Med Chem, 2024).

Tests used:
Carbonic anhydrase 12 = Carbonic anhydrase 12 (Homo sapiens, UniProt O43570)
Description: Binding affinity to human carbonic anhydrase 12 assessed as inhibition constant incubated for 15 mins by phenol red based stopped-flow CO2 hydration assay

Carbonic anhydrase 2 [1] = molecular target: T1, Carbonic anhydrase 2 (Homo sapiens, UniProt P00918)
Description: Binding affinity to human carbonic anhydrase 2 assessed as inhibition constant incubated for 15 mins by phenol red based stopped-flow CO2 hydration assay

Carbonic anhydrase 2 [2] = molecular target: T1, Carbonic anhydrase 2; remark: listed apart in the source
Description: Binding affinity to human recombinant carbonic anhydrase 2 assessed as inhibition constant incubated for 15 mins by phenol red based stopped-flow CO2 hydration assay

Carbonic anhydrase 1 = Carbonic anhydrase 1 (Homo sapiens, UniProt P00915)
Description: Binding affinity to human carbonic anhydrase 1 assessed as inhibition constant incubated for 15 mins by phenol red based stopped-flow CO2 hydration assay

Carbonic anhydrase 9 = Carbonic anhydrase 9 (Homo sapiens, UniProt Q16790)
Description: Binding affinity to human carbonic anhydrase 9 assessed as inhibition constant incubated for 15 mins by phenol red based stopped-flow CO2 hydration assay

MCF7 [3] = assay: Antiproliferative activity against human MCF7 cells assessed as inhibition of cell growth under hypoxia condition by MTT colorimetric assay
MCF7 [4] = assay: Antiproliferative activity against human MCF7 cells assessed as inhibition of cell growth under normoxia condition by MTT colorimetric assay

Sequence of Carbonic anhydrase 12 (O43570 whole entry): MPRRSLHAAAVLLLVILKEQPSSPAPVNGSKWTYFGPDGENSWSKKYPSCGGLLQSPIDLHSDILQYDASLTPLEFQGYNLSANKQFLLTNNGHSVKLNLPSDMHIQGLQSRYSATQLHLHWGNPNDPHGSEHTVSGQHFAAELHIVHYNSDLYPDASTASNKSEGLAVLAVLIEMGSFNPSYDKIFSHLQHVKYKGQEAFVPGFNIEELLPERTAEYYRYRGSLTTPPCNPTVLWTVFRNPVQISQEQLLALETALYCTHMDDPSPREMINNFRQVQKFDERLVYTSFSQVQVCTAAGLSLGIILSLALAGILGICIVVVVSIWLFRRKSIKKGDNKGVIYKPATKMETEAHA
Sequence of Carbonic anhydrase 1 (P00915 whole entry): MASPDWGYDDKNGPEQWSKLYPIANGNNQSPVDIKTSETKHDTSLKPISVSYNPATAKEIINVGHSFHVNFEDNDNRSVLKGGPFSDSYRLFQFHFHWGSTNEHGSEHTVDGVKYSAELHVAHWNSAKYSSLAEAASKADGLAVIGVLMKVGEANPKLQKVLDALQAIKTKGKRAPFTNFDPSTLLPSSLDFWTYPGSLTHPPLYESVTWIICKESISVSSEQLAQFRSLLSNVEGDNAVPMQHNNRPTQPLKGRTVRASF

Structure (SMILES)	Ki (Carbonic anhydrase 12) [nM]	Ki (Carbonic anhydrase 2 [1]) [nM]	other results
CN1C(=O)/C(=C\c2ccc(Cl)cc2)S/C1=N/c1ccc(S(N)(=O)=O)cc1	48.8		
NS(=O)(=O)c1ccc(/N=C2\NC(=O)/C(=C\c3ccccc3)S2)cc1	120	90.5	
NS(=O)(=O)c1ccc(N2C(=O)CS/C2=N\C(=O)c2ccccc2)cc1			Ki (Carbonic anhydrase 2 [2]): 0.41 nM
CN1C(=O)/C(=C\c2ccc(F)cc2)S/C1=N/c1ccc(S(N)(=O)=O)cc1	37	30.7	
CCN1C(=O)/C(=C2\C(=O)Nc3ccccc32)S/C1=N/c1ccc(S(N)(=O)=O)cc1	9.1	105	
CN1C(=O)/C(=C\c2ccccc2)S/C1=N/c1ccc(S(N)(=O)=O)cc1	74.5	44.5	
NS(=O)(=O)c1ccc(/N=C2\NC(=O)/C(=C3\C(=O)Nc4ccccc43)S2)cc1	33.5	23	Ki (Carbonic anhydrase 1): 631 nM; Ki (Carbonic anhydrase 9): 47 nM
NS(=O)(=O)c1ccc(/N=C2\NC(=O)/C(=C\c3ccc(F)cc3)S2)cc1		7	
COc1ccc(/C=C2/S/C(=N/c3ccc(S(N)(=O)=O)cc3)NC2=O)cc1	77.6	24.3	
CCN1C(=O)/C(=C\c2ccc(Cl)cc2)S/C1=N/c1ccc(S(N)(=O)=O)cc1	36.3	30.5	
COc1ccc(/C=C2/S/C(=N/c3ccc(S(N)(=O)=O)cc3)N(C)C2=O)cc1	66.6	54.6	
CCN1C(=O)/C(=C\c2ccc(F)cc2)S/C1=N/c1ccc(S(N)(=O)=O)cc1	11	85	IC50 (MCF7 [3]): 34000 nM; IC50 (MCF7 [4]): 21600 nM; Ki (Carbonic anhydrase 1): 4420 nM; Ki (Carbonic anhydrase 9): 33.9 nM
CCN1C(=O)/C(=C\c2ccc(OC)cc2)S/C1=N/c1ccc(S(N)(=O)=O)cc1	56.6		
CCN1C(=O)/C(=C\c2ccccc2)S/C1=N/c1ccc(S(N)(=O)=O)cc1	96.3	77.2	
NS(=O)(=O)c1ccc(/N=C2\NC(=O)/C(=C\c3ccc(Cl)cc3)S2)cc1		95.7	
